Source: patent US20240025912A1 (Merck Sharp & Dohme LLC, priority 2022, published 2024)

Target: GST-RIPK1 (recombinant GST-RIPK1 kinase domain (residues 1-327)) (Homo sapiens (Human), UniProt Q13546)
Assay: RIPK1-ADP-Glo Enzymatic Assay
Type: biochemical
Conditions: 25 nM GST-RIPK1, 300 μM ATP, 3 μM dephosphorylated-MBP, 30 min pre-incubation, 150 min reaction
In short: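 GST-RIPK1 kinase domain (1-327, Sf21-expressed), 25 nM final, pre-incubated 30 min with compound (1% DMSO), then reacted 150 min with 300 μM ATP and 3 μM dephosphorylated MBP in HEPES pH 7.3/MgCl2 buffer. ADP measured by ADP-Glo luminescence; EC50 from 10-point 1:3 titrations (top 100000 nM), four-parameter fit.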

Chain of GST-RIPK1 (recombinant GST-RIPK1 kinase domain (residues 1-327)) (Q13546 1-327): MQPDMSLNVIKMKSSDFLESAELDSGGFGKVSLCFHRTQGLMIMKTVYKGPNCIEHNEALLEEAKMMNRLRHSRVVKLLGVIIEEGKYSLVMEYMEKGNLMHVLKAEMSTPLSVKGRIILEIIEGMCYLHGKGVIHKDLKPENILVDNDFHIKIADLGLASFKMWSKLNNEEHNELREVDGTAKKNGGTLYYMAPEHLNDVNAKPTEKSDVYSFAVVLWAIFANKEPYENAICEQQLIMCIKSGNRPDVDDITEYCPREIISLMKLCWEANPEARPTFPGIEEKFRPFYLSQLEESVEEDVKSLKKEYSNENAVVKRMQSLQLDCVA

| Compound | EC50 [nM] |
| --- | --- |
| N#CC12CCC(n3nc4n(c3=O)[C@H](c3cnccn3)CC4)(C1)C2 [Compound 1-60, (S)-4-(3-oxo-5-(pyrazin-2-yl)-6,7-dihydro-3H-pyrrolo[2,1-c][1,2,4]triazol-2(5H)-yl)bicyclo[2.1.1]hexane-1-carbonitrile] | 512 |
| O=c1n(C23CC(C(F)F)(C2)C3)nc2n1[C@H](c1ccccc1)CC2 [Compound 1-31, (5S)-2-[3-(difluoromethyl)bicyclo[1.1.1]pentan-1-yl]-5-phenyl-2,5,6,7-tetrahydro-3H-pyrrolo[2,1-c][1,2,4]triazol-3-one] | 36.8 |
| O=c1n(C23CC(F)(C2)C3)nc2n1[C@H](c1cc(F)c(F)c(F)c1)CC2 [Compound 1-76, (S)-2-(3-fluorobicyclo[1.1.1]pentan-1-yl)-5-(3,4,5-trifluorophenyl)-2,5,6,7-tetrahydro-3H-pyrrolo[2,1-c][1,2,4]triazol-3-one] | 27.5 |
| O=c1n(C23CC(F)(C2)C3)nc2n1[C@H](c1cc(F)cc(F)c1)CCC2 [Compound 1-58, (S)-5-(3,5-difluorophenyl)-2-(3-fluorobicyclo[1.1.1]pentan-1-yl)-5,6,7,8-tetrahydro-[1,2,4]triazolo[4,3-a]pyridin-3(2H)-one] | 45.9 |
| N#CC12CC(n3nc4n(c3=O)C(C3CCCC3)CC4)(C1)C2 (single isomer, unassigned) [Compound 1-54, 3-(5-(S or R)-cyclopentyl-3-oxo-6,7-dihydro-3H-pyrrolo[2,1-c][1,2,4]triazol-2(5H)-yl)bicyclo[1.1.1]pentane-1-carbonitrile] | 340 |
| N#CC12CC(n3nc4n(c3=O)[C@H](c3ccc(F)c(F)c3)CC4)(C1)C2 [Compound 1-44, (S)-3-(5-(3,4-difluorophenyl)-3-oxo-6,7-dihydro-3H-pyrrolo[2,1-c][1,2,4]triazol-2(5H)-yl)bicyclo[1.1.1]pentane-1-carbonitrile] | 67.7 |
| COc1ccc([C@@H]2CCc3nn(C45CC(F)(C4)C5)c(=O)n32)cc1 [Compound 1-66, (S)-2-(3-fluorobicyclo[1.1.1]pentan-1-yl)-5-(4-methoxyphenyl)-2,5,6,7-tetrahydro-3H-pyrrolo[2,1-c][1,2,4]triazol-3-one] | 85.8 |
| N#CC12CC(n3nc4n(c3=O)[C@H](c3ccc(F)cc3F)CC4)(C1)C2 [Compound 1-47, (S)-3-(5-(2,4-difluorophenyl)-3-oxo-6,7-dihydro-3H-pyrrolo[2,1-c][1,2,4]triazol-2(5H)-yl)bicyclo[1.1.1]pentane-1-carbonitrile] | 86.4 |
| Cc1cc(F)c([C@@H]2CCc3nn(C45CC(F)(C4)C5)c(=O)n32)c(F)c1 [Compound 1-74, (S)-5-(2,6-difluoro-4-methylphenyl)-2-(3-fluorobicyclo[1.1.1]pentan-1-yl)-2,5,6,7-tetrahydro-3H-pyrrolo[2,1-c][1,2,4]triazol-3-one] | 20.9 |
| O=c1n(C23CC(F)(C2)C3)nc2n1[C@H](c1ccc(Cl)cc1)CC2 [Compound 1-45, (S)-5-(4-chlorophenyl)-2-(3-fluorobicyclo[1.1.1]pentan-1-yl)-2,5,6,7-tetrahydro-3H-pyrrolo[2,1-c][1,2,4]triazol-3-one] | 37.7 |
| CC(F)(F)C12CC(n3nc4n(c3=O)[C@H](c3cccc(F)c3)CC4)(C1)C2 [Compound 1-34, (5S)-2-[3-(1,1-difluoroethyl)bicyclo[1.1.1]pentan-1-yl]-5-(3-fluorophenyl)-2,5,6,7-tetrahydro-3H-pyrrolo[2,1-c][1,2,4]triazol-3-one] | 26.9 |
| O=c1n(C23CC(Cl)(C2)C3)nc2n1[C@H](c1ccc(F)cn1)CC2 [Compound 1-71, (S)-2-(3-chlorobicyclo[1.1.1]pentan-1-yl)-5-(5-fluoropyridin-2-yl)-2,5,6,7-tetrahydro-3H-pyrrolo[2,1-c][1,2,4]triazol-3-one] | 162 |
| N#CC12CC(n3nc4n(c3=O)[C@H](c3ccccc3F)CC4)(C1)C2 [Compound 1-23, 3-[(5S)-5-(2-fluorophenyl)-3-oxo-6,7-dihydro-3H-pyrrolo[2,1-c][1,2,4]triazol-2(5H)-yl]bicyclo[1.1.1]pentane-1-carbonitrile] | 31.8 |
| COC(=O)C12CC(n3nc4n(c3=O)[C@H](c3ccccc3)CC4)(C1)C2 [Compound 1-19, methyl 3-[(5S)-3-oxo-5-phenyl-6,7-dihydro-3H-pyrrolo[2,1-c][1,2,4]triazol-2(5H)-yl]bicyclo[1.1.1]pentane-1-carboxylate] | 289 |
| O=c1n(C23CC(C(F)F)(C2)C3)nc2n1[C@H](c1cncc(F)c1)CC2 [Compound 1-57, (S)-2-(3-(difluoromethyl)bicyclo[1.1.1]pentan-1-yl)-5-(5-fluoropyridin-3-yl)-2,5,6,7-tetrahydro-3H-pyrrolo[2,1-c][1,2,4]triazol-3-one] | 369 |
| O=c1n(C23CCC(C2)C3)nc2n1[C@H](c1cc(F)cc(F)c1)CC2 [Compound 1-4, (5S)-2-(bicyclo[2.1.1]hexan-1-yl)-5-(3,5-difluorophenyl)-2,5,6,7-tetrahydro-3H-pyrrolo[2,1-c][1,2,4]triazol-3-one] | 31.1 |
| O=c1n(C23CC(F)(C2)C3)nc2n1[C@H](c1cc(F)cc(F)c1)CC2 [Compound 1-2, (5S)-5-(3,5-difluorophenyl)-2-(3-fluorobicyclo[1.1.1]pentan-1-yl)-2,5,6,7-tetrahydro-3H-pyrrolo[2,1-c][1,2,4]triazol-3-one] | 22.8 |
| C[C@@H]1C[C@@H](c2cc(F)cc(F)c2)n2c1nn(C13CC(C#N)(C1)C3)c2=O [Compound 1-69, 3-((5S,7R)-5-(3,5-difluorophenyl)-7-methyl-3-oxo-6,7-dihydro-3H-pyrrolo[2,1-c][1,2,4]triazol-2(5H)-yl)bicyclo[1.1.1]pentane-1-carbonitrile] | 263 |
| N#CC12CCC(n3nc4n(c3=O)[C@H](c3ccccc3)CC4)(C1)C2 [Compound 1-39, 4-[(5S)-3-oxo-5-phenyl-6,7-dihydro-3H-pyrrolo[2,1-c][1,2,4]triazol-2(5H)-yl]bicyclo[2.1.1]hexane-1-carbonitrile] | 47 |
| O=c1n(C23CC(C2)C3)nc2n1[C@H](c1cc(F)cc(F)c1)CC2 [Compound 1-7, (5S)-2-(bicyclo[1.1.1]pentan-1-yl)-5-(3,5-difluorophenyl)-2,5,6,7-tetrahydro-3H-pyrrolo[2,1-c][1,2,4]triazol-3-one] | 98.4 |
| O=c1n(C23CC(Cl)(C2)C3)nc2n1[C@H](c1cnccn1)CC2 [Compound 1-59, (S)-2-(3-chlorobicyclo[1.1.1]pentan-1-yl)-5-(pyrazin-2-yl)-2,5,6,7-tetrahydro-3H-pyrrolo[2,1-c][1,2,4]triazol-3-one] | 53.9 |

Now from value to compound:

| EC50 [nM] | Compound |
| --- | --- |
| 426 | N#Cc1cccc(C2CCc3nn(C45CC(F)(C4)C5)c(=O)n32)c1 (racemic) [Compound 4-3, (±)-3-[2-(3-fluorobicyclo[1.1.1]pentan-1-yl)-3-oxo-2,5,6,7-tetrahydro-3H-pyrrolo[2,1-c][1,2,4]triazol-5-yl]benzonitrile] |
| 79.8 | Cc1cncc([C@@H]2CCc3nn(C45CC(F)(C4)C5)c(=O)n32)n1 [Compound 4-13, (S)-2-(3-fluorobicyclo[1.1.1]pentan-1-yl)-5-(6-methylpyrazin-2-yl)-2,5,6,7-tetrahydro-3H-pyrrolo[2,1-c][1,2,4]triazol-3-one] |
| 496 | O=c1n(C23CC(F)(C2)C3)nc2n1[C@H](c1cnc(C(F)(F)F)cn1)CC2 [Compound 4-16, (S)-2-(3-fluorobicyclo[1.1.1]pentan-1-yl)-5-(5-(trifluoromethyl)pyrazin-2-yl)-2,5,6,7-tetrahydro-3H-pyrrolo[2,1-c][1,2,4]triazol-3-one] |
| 20.5 | N#CC12CC(n3nc4n(c3=O)[C@H](c3cc(F)cc(F)c3)CC4F)(C1)C2 (single isomer, unassigned) [Compound 6-6, 3-[(5S)-5-(3,5-difluorophenyl)-7-(S or R)-fluoro-3-oxo-6,7-dihydro-3H-pyrrolo[2,1-c][1,2,4]triazol-2(5H)-yl]bicyclo[1.1.1]pentane-1-carbonitrile] |
| 143 | COC(=O)C12CC(n3nc4n(c3=O)[C@H](c3ccccc3)CC4)(C1)C2(F)F [Compound 3-2, methyl (S)-2,2-difluoro-3-(3-oxo-5-phenyl-6,7-dihydro-3H-pyrrolo[2,1-c][1,2,4]triazol-2(5H)-yl)bicyclo[1.1.1]pentane-1-carboxylate] |
| 21.8 | N#CC12CC(n3nc4n(c3=O)[C@H](c3ccccc3)CC4F)(C1)C2 (single isomer, unassigned) [Compound 6-8, 3-[(5S)-7-(S or R)-fluoro-3-oxo-5-phenyl-6,7-dihydro-3H-pyrrolo[2,1-c][1,2,4]triazol-2(5H)-yl]bicyclo[1.1.1]pentane-1-carbonitrile] |
| 38.8 | O=c1n(C23CC(F)(C2)C3)nc2n1[C@H](c1cnccn1)C[C@@H]2F [Compound 4-17, (5S,7S)-7-fluoro-2-(3-fluorobicyclo[1.1.1]pentan-1-yl)-5-(pyrazin-2-yl)-2,5,6,7-tetrahydro-3H-pyrrolo[2,1-c][1,2,4]triazol-3-one] |
| 505 | N#CC12CC(n3nc4n(c3=O)[C@H](c3ccccc3)CC4F)(C1)C2 (single isomer, unassigned) [Compound 6-7, 3-[(5S)-7-(S or R)-fluoro-3-oxo-5-phenyl-6,7-dihydro-3H-pyrrolo[2,1-c][1,2,4]triazol-2(5H)-yl]bicyclo[1.1.1]pentane-1-carbonitrile] |
| 21.9 | O=c1n(C23CC(F)(C2)C3)nc2n1[C@H](c1ccccc1)CC2F (single isomer, unassigned) [Compound 6-4, (5S)-7-(S or R)-fluoro-2-(3-fluorobicyclo[1.1.1]pentan-1-yl)-5-phenyl-2,5,6,7-tetrahydro-3H-pyrrolo[2,1-c][1,2,4]triazol-3-one] |
